Assay results from article PMC6804135, “Comparative Study of Aryl O-, C-, and S-Mannopyranosides as Potential Adhesion Inhibitors toward Uropathogenic E. coli FimH” (Molecules, 2019).
Where two headings read alike, the source gives them in different places.

Key:
E. coli FimH [1] = molecular target: T1, E. coli FimH (Escherichia coli, UniProt Q1R2J4); assay: SPR solution affinity (competition) of ligands for FimH on immobilized 6-aminohexyl α-D-mannopyranoside; assay type: binding; set-up: The FimH residues 1-158 were isolated from the E. coli strain UTI89; made in house; conditions: for Relative Potency: relative to MeαMan (1) = 1; for ΔG°: from SPR Kd
Text: To this end, we first immobilized 6-aminohexyl α-D-mannopyranoside (4) on the CM5 gold chip using the conventional carbodiimide method to which we allowed FimH to bind with and without our competitive inhibitors (see sensorgram of 4 in the SI). The equilibrium dissociation constant (Kd) of the interaction was then normalized, the data sets are illustrated in Figure 5 and values given in Table 1 (see experimental details). This modification from the previous protocol using 8-aminooctyl α-D-mannoside was found much more practical and reliable given its very high affinity to FimH which made the gold chip regeneration from sample to sample too complicated (very slow koff).
SPR Solution Affinity of Ligands for the E. coli FimH Adhesin
Second, the equilibrium dissociation constants (KD) of FimH against the compounds of interest were determined by measuring the amount of free FimH in a series of concentrations of the compounds of interest at a constant concentration of FimH (close to the Kd of FimH: 6-aminohexyl α-D-mannopyranoside) after equilibrium in solution. A concentration series of the ligand of interest (65536 to 0.5 nM in running buffer, 2-fold dilutions) was equilibrated overnight with analyte FimH (40 nM) and then injected over the previous ligand 6-aminohexyl α-D-mannopyranoside-immobilized surface (300 s association time; 300 s dissociation time; 30 μL/min flow rate; 25 °C temperature; running buffer: 5% DMSO, PBS pH 7.45, 3 mM EDTA supplemented with 0.05% Tween-20; regeneration: 30 s of 10 mM Glycine pH 1.5) and the response was single-referenced by subtracting the reference channel and solvent corrected with a DMSO calibration curve. Since equilibrium could not be reached during injection, the responses (free [FimH], Y-axis) at the end of the injections were normalized with the response from FimH only ([compound of interest] = 0) and then plotted over the compounds of interest concentrations (X-axis).

E. coli FimH [2] = molecular target: T1, E. coli FimH; assay: Previously reported SPR Kd against FimH; assay type: binding; set-up: The FimH residues 1-158 were isolated from the E. coli strain UTI89; made in house; conditions: 5 versus 7; from Kd values of ref 18
E. coli FimH [3] = molecular target: T1, E. coli FimH; set-up: The FimH residues 1-158 were isolated from the E. coli strain UTI89; made in house; conditions: read-out: Kd (SPR), cited from earlier work
E. coli FimH [4] = molecular target: T1, E. coli FimH; assay: SPR kinetic analysis of FimH against immobilized 6-aminohexyl α-D-mannopyranoside (4); assay type: binding; set-up: The FimH residues 1-158 were isolated from the E. coli strain UTI89; made in house; conditions: for Kd: KD = koff/kon
Method: First, the equilibrium dissociation constant (KD) of FimH against immobilized 6-aminohexyl α-D-mannopyranoside (4) was determined. The ligand 6-aminohexyl α-D-mannopyranoside (10 mM in H2O) was immobilized via standard amine carbodiimide coupling chemistry (and blocking with ethanolamine as per the manufacturer’s procedure) to obtain 364 response units (RU) (see sensorgram in SI). The reference channel was treated similarly without ligand. A concentration series of the analyte FimH (1024 to 8 nM in running buffer, 2-fold dilutions) was then injected over the surface (700 s association time; 1200 s dissociation time; 30 μL/min flow rate; 25 °C temperature; running buffer: PBS pH 7.45, 3 mM EDTA supplemented with 0.005% Tween-20; regeneration: 30 s of 10 mM Glycine pH 1.5) and the response was double-referenced by subtracting the reference channel and the response with no FimH (running buffer only). Since equilibrium could not be reached during injection, KD was obtained from the extracted kinetic rate constants (KD = koff / kon) from a non-linear globally fitted 1:1 Langmuir binding isotherm containing a mass transfer constant (tc) and locally fitted refractive index constant (RI) (Biacore T200 evaluation software v1.0, GE Healthcare Life Sciences) of the obtained sensorgrams.

E. coli FimH [5] = molecular target: T1, E. coli FimH; conditions: from IC50 values of ref 20
E. coli FimH [6] = molecular target: T1, E. coli FimH; set-up: The FimH residues 1-158 were isolated from the E. coli strain UTI89; made in house; conditions: read-out: IC50 (SPR); cited from earlier work

OCC1OC(OCC=Cc2ccc(-c3ccccc3)cc2)C(O)C(O)C1O (stereo not shown) [Compound 5]
Kd (E. coli FimH [1]): 19.9 ± 1.22 nM
Relative Potency (E. coli FimH [1]): 24
fold better Kd than 7 (E. coli FimH [2]): 135 fold
Kd (E. coli FimH [3]): 3 nM

NCCCCCCO[C@H]1O[C@H](CO)[C@@H](O)[C@H](O)[C@@H]1O [Compound 4, 6-aminohexyl α-D-mannopyranoside]
Kd (E. coli FimH [4]; KD, fitted constant): 38.6 nM
Kd (E. coli FimH [4]; Kd, immobilized ligand 4, FimH as analyte, 25 °C, PBS pH 7.45): 38.58 ± 0.11 nM
dissociation rate constant (koff) (E. coli FimH [4]; fitted constant (dissociation rate), 1:1 Langmuir with mass transfer): 2,06E-04 1/s
kon (E. coli FimH [4]; read-out: ka): 5340 M⁻¹ s⁻¹
Relative Potency (E. coli FimH [4]; relative to MeαMan (1) = 1, immobilized ligand 4): 12

OCC1OC(CC=Cc2ccc(-c3ccccc3)cc2)C(O)C(O)C1O (stereo not shown) [Compound 6]
Kd (E. coli FimH [1]): 11.4 ± 0.63 nM
Relative Potency (E. coli FimH [1]): 42

CO[C@H]1O[C@H](CO)[C@@H](O)[C@H](O)[C@@H]1O [MeαMan (1), Methyl α-D-mannopyranoside]
Kd (E. coli FimH [1]): 475 ± 5.7 nM
ΔG° (E. coli FimH [1]): -8.62 kcal/mol
Relative Potency (E. coli FimH [1]): 1

CCCCCCCS[C@H]1O[C@H](CO)[C@@H](O)[C@H](O)[C@@H]1O [S-linked heptyl α-D-mannopyranoside]
difference between O- and S-linked heptyl α-D-mannopyranosides (E. coli FimH [5]): 3.4 fold
IC50 (E. coli FimH [6]): 547 nM

O=[N+]([O-])c1ccc(O[C@H]2O[C@H](CO)[C@@H](O)[C@H](O)[C@@H]2O)cc1 [PNPαMan (2), para-nitrophenyl α-D-mannopyranoside]
Kd (E. coli FimH [1]): 4.21 ± 0.72 nM
ΔG° (E. coli FimH [1]): -11.42 kcal/mol
Relative Potency (E. coli FimH [1]): 113

OC[C@H]1O[C@H](OCC#Cc2ccc(-c3ccccc3)cc2)[C@@H](O)[C@@H](O)[C@@H]1O [Compound 7]
Kd (E. coli FimH [3]): 405 nM

OCC1OC(SCC=Cc2ccc(-c3ccccc3)cc2)C(O)C(O)C1O [Compound 12, (2E)-3-(1,1’-biphenyl-2-propen-1-yl) 1-thio-α-D-mannopyranoside]
Kd (E. coli FimH [1]): 94.4 ± 6.2 nM
difference in respective Kds between 5 and 12 (E. coli FimH [1]; O-linked 5 versus S-linked 12): about 5 fold
Relative Potency (E. coli FimH [1]): 5

CCCCCCCO[C@H]1O[C@H](CO)[C@@H](O)[C@H](O)[C@@H]1O [HeptylαMan (3), Heptyl α-D-mannopyranoside]
Kd (E. coli FimH [1]): 2.37 ± 0.5 nM
ΔG° (E. coli FimH [1]): -11.76 kcal/mol
Relative Potency (E. coli FimH [1]): 200
Kd (E. coli FimH [3]; reported value for the golden standard): 5 nM
IC50 (E. coli FimH [6]): 160 nM
